Consider 28 molecules from patent US9200020B2, “6-oxopurine phosphoribosyltransferase inhibitors” (THE UNIVERSITY OF QUEENSLAND, priority 2012, dated 2015).

Where two headings read alike, the source gives them in different places.

One assay relates to P. falciparum strain D6. The assay can be described thus: [3H]-hypoxanthine growth inhibition assay, P. falciparum D6. To be noted: Plasmodium falciparum; for IC50: D6, read-out: D6 IC50; for IC90: D6, read-out: D6 IC90.
The next assay concerns P. falciparum strain W2. The experiment in a line: [3H]-hypoxanthine growth inhibition assay, P. falciparum W2. To be noted: Plasmodium falciparum; for IC50: W2, read-out: W2 IC50; for IC90: W2, read-out: W2 IC90.
A further assay concerns the target human HGPRT (Homo sapiens (Human), UniProt P00492). The experiment in a line: Ki determination, spectrophotometric assay, human HGPRT. Format: biochemical. To be noted: Ki(app), 25° C., pH 7.4, guanine 60 μM.
The next assay deals with PfHGXPRT (Plasmodium falciparum (isolate FCR-3 / Gambia), UniProt P20035). The experiment in a line: biochemical. Format: biochemical.
The target of another assay is PvHGPRT (Plasmodium vivax, UniProt A5K7E9). The assay can be described thus: biochemical. To be noted: for Ki ratio (proto:phosphonatoethyl): PvHGPRT, decrease in Ki when N-H is replaced by phosphonoethyl.
Chain of PvHGPRT (A5K7E9 1-233): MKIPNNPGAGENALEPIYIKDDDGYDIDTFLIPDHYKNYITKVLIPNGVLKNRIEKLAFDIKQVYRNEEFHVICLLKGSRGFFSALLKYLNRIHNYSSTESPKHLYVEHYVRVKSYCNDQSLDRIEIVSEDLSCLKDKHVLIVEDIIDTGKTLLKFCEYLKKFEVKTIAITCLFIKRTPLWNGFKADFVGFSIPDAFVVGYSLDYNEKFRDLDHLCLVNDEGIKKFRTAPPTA
For the next assay, the target named is E. coli XGPRT (Escherichia coli (strain K12), UniProt P0A9M5). The assay can be described thus: Ki values with E. coli XGPRT. To be noted: read-out: Ki (μM) XGPRT.
Assay [1] relates to M. tuberculosis H37Ra (ATCC 25177). The experiment in a line: Resazurin reduction microplate assay, M. tuberculosis. The note with it: five days at 37° C., resazurin fluorescence. (Resazurin is reduced to fluorescent resorufin, in cell work by metabolically active cells.)
Setting [2] is: Ki(app), 25° C., pH 7.4, guanine 60 μM, read-out: Ki Pf.
The mark [3] stands for this setting: Ki(app), 25° C., pH 7.4, guanine 60 μM, read-out: Ki Pv.

Chain of human HGPRT (P00492 whole entry): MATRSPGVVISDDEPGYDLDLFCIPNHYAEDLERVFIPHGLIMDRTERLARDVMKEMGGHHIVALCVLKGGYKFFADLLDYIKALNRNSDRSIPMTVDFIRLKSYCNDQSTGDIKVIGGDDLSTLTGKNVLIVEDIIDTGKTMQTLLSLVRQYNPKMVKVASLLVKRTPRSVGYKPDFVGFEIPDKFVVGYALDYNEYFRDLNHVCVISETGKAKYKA

Take `N#CCCN(CCn1cnc2c(=O)[nH]cnc21)CCP(=O)(O)O` [Compound 12]: in the assay on P. falciparum strain D6, the IC50 was 6.4 ± 0.9 µM and the IC90 is 10.2 ± 1.6 µM. Also, in the assay with P. falciparum strain W2, the IC50 turned out to be 10.4 ± 2 µM and the IC90 came to 21.2 ± 1 µM.

Take `N#CCCN(CCn1cnc2c(=O)[nH]c(N)nc21)CCP(=O)(O)O` [Compound 11]: the IC50 in the assay with P. falciparum strain D6 was around 145 µM.

Take `O=C(O)CCN(CCn1cnc2c(=O)[nH]cnc21)CCP(=O)(O)O` [Example 22, 9-[(N-(2-Carboxyethyl)-N-(2-phosphonoethyl))-2-aminoethyl]hypoxanthine]: the Ki on human HGPRT is at least 240 µM; on PfHGXPRT (setting [2]), 0.4 ± 0.03 µM; at PvHGPRT (setting [3]), 41 ± 5 µM.

Take `CC(C#N)CN(CCn1cnc2c(=O)[nH]cnc21)CCP(=O)(O)O` (stereo not shown) [Example 20, 9-[(N-(2-Cyanopropyl)-N-(2-phosphonoethyl))-2-aminoethyl]hypoxanthine]: the Ki is 29 ± 2 µM at human HGPRT, 6 ± 0.06 µM on PfHGXPRT (setting [2]) and at least 230 µM at PvHGPRT (setting [3]).

With `Nc1nc2c(ncn2CCNCCP(=O)(O)O)c(=O)[nH]1` [Example 12, 9-[(N-(2-Phosphonoethyl))-2-aminoethyl]guanine], the results for the Ki at human HGPRT, at PfHGXPRT (setting [2]) and on PvHGPRT (setting [3]) were 3 ± 0.6 µM, 16 ± 1 µM and 11 ± 0.6 µM, respectively.

In the case of `O=C(O)CCCN(CCn1cnc2c(=O)[nH]cnc21)CCP(=O)(O)O` [Example 23, 9-[(N-(Carboxypropyl)-N-(2-phosphonoethyl))-2-aminoethyl]hypoxanthine], the Ki on PfHGXPRT is at least 210 µM.

Consider `COC(=O)CCN(CCn1cnc2c(=O)[nH]cnc21)CCP(=O)(O)O` [Example 16, 9-[(N-(3-Methoxy-3-oxopropyl)-N-(2-phosphonoethyl))-2-aminoethyl]hypoxanthine], for which the Ki on human HGPRT is at least 200 µM; at PfHGXPRT (setting [2]), 0.1 ± 0.03 µM; on PvHGPRT (setting [3]), 21 ± 2 µM.

On to `CCOC(=O)[C@H](Cc1ccccc1)NP(=O)(CCN(CCC(=O)OC)CCn1cnc2c(=O)[nH]c(N)nc21)N[C@@H](Cc1ccccc1)C(=O)OCC` [Compound 10], for which the IC50 stood at 11.8 ± 1.6 µM in the assay with P. falciparum strain D6 and 5.6 ± 1.8 µM in the assay with P. falciparum strain W2. Moreover, the concentration for an effect of 90% (IC90) with P. falciparum strain D6 is 30 ± 2.9 µM; in the assay on P. falciparum strain W2 it was 37.5 ± 3.5 µM.

`O=c1[nH]cnc2c1ncn2CCN(CCP(=O)(O)O)CCP(=O)(O)O` [Example 25, 9-[(N,N-(Bis-2-phosphonoethyl))-2-aminoethyl]hypoxanthine] came in with a Ki on PfHGXPRT of 0.4 ± 0.1 µM. In addition, the “Ki ratio (proto:phosphonatoethyl)” value at PvHGPRT is >20-fold.

As for `CCCOC(=O)[C@H](Cc1ccccc1)NP(=O)(CCN(CCC#N)CCn1cnc2c(=O)[nH]cnc21)N[C@@H](Cc1ccccc1)C(=O)OCCC` [Compound 14], in the assay with P. falciparum strain D6, the IC50 amounted to 12.3 ± 1.6 µM and the IC90 is 18.7 ± 1.7 µM. In the assay on P. falciparum strain W2, the half-inhibitory concentration (IC50) is 19.3 ± 7.5 µM and the concentration for an effect of 90% (IC90) came out at 48 ± 13.6 µM.

`N#CCCCN(CCn1cnc2c(=O)[nH]c(N)nc21)CCP(=O)(O)O` [Compound 4]: in the assay with P. falciparum strain D6, the IC50 came to 8.6 ± 1.5 µM and the IC90 was 24.5 ± 3.5 µM. Also, in the assay with P. falciparum strain W2, the half-inhibitory concentration (IC50) was 5.7 ± 3.9 µM and the 90% effect concentration (IC90) was 32.5 ± 3.5 µM.

Take `Nc1nc2c(ncn2CCOCCP(=O)(O)O)c(=O)[nH]1` [PEEG, 2-(Phosphonoethoxy)ethyl guanine, reference compound]: the Ki on human HGPRT came to 1 ± 0.5 µM; at PfHGXPRT (setting [2]), 0.1 ± 0.02 µM.

In the case of `CCOC(=O)[C@H](Cc1ccccc1)NP(=O)(CCN(CCCC#N)CCn1cnc2c(=O)[nH]cnc21)N[C@@H](Cc1ccccc1)C(=O)OCC` [Compound 6], in the assay on P. falciparum strain D6, the concentration for half-maximal inhibition (IC50) was found to be 4.2 ± 1.4 µM and the IC90 is 10.6 ± 1.8 µM. In the assay with P. falciparum strain W2, the IC50 was found to be 5.5 ± 1.6 µM and the concentration for an effect of 90% (IC90) is 16.1 ± 0.1 µM.

As for `CCOC(=O)CN(CCn1cnc2c(=O)[nH]cnc21)CCP(=O)(O)O` [Example 15, 9-[(N-(2-Ethoxy-2-oxoethyl)-N-(2-phosphonoethyl))-2-aminoethyl]hypoxanthine], the Ki turned out to be 2.6 ± 0.5 µM at human HGPRT, 1.9 ± 0.4 µM at PfHGXPRT (setting [2]) and 11 ± 1 µM at PvHGPRT (setting [3]).

On to `O=c1[nH]cnc2c1ncn2CCOCCP(=O)(O)O` [PEEHx, 2-(phosphonoethoxy)ethyl hypoxanthine, reference compound], for which the Ki turned out to be 3.6 ± 0.2 µM on human HGPRT and 0.3 ± 0.04 µM at PfHGXPRT (setting [2]).

With `Nc1nc2c(ncn2CCN(CCOCP(=O)(O)O)CCP(=O)(O)O)c(=O)[nH]1` [Compound 1], on E. coli XGPRT, the Ki came to 0.4 µM.

For `N#CCN(CCn1cnc2c(=O)[nH]cnc21)CCP(=O)(O)O` [Example 18, 9-[(N-(2-Cyanomethyl)-N-(2-phosphonoethyl))-2-aminoethyl]hypoxanthine], the Ki at human HGPRT was 35 µM; on PfHGXPRT (setting [2]) it was at least 250 µM; at PvHGPRT (setting [3]), 47 ± 5 µM.

Turning to `Nc1nc2c(ncn2CCN(CCP(=O)(O)O)CCP(=O)(O)O)c(=O)[nH]1` [Example 11, 9-[(N,N-(Bis-2-phosphonoethyl))-2-aminoethyl]guanine], the “Ki ratio (proto:phosphonatoethyl)” value on PvHGPRT is given as 12-fold.

As for `N#CCCN(CCn1cnc2c(=O)[nH]cnc21)CCP(=O)(O)O` [Example 19, 9-[(N-(2-Cyanoethyl)-N-(2-phosphonoethyl))-2-aminoethyl]hypoxanthine], the Ki on human HGPRT was determined as 2.4 ± 0.2 µM; on PfHGXPRT (setting [2]), 0.2 ± 0.05 µM; at PvHGPRT (setting [3]), 0.7 ± 0.06 µM.

On to `O=c1[nH]cnc2c1ncn2CCN(CCO)CCP(=O)(O)O` [Example 24, 9-[(N-(2-Hydroxyethyl)-N-(2-phosphonoethyl))-2-aminoethyl]hypoxanthine], for which the values for the Ki on human HGPRT, on PfHGXPRT (setting [2]) and at PvHGPRT (setting [3]) were 5.5 ± 0.4 µM, 2.6 ± 0.4 µM and 21 ± 3 µM, respectively.

With `O=c1[nH]cnc2c1ncn2CCNCCP(=O)(O)O` [Example 26, 9-[(N-(2-Phosphonoethyl))-2-aminoethyl]hypoxanthine], the Ki on human HGPRT is 40 ± 2 µM; on PfHGXPRT, at least 200 µM; on PvHGPRT (setting [3]), at least 250 µM.

For `CCCOC(=O)[C@H](Cc1ccccc1)NP(=O)(CCN(CCC#N)CCn1cnc2c(=O)[nH]c(N)nc21)N[C@@H](Cc1ccccc1)C(=O)OCCC` [Compound 13], in the assay with P. falciparum strain D6, the concentration for half-maximal inhibition (IC50) was found to be 75 µM and the IC90 is 215 µM.

`COC(=O)CCCN(CCn1cnc2c(=O)[nH]c(N)nc21)CCP(=O)(O)O` [Example 3, 9-[(N-(4-Methoxy-4-oxobutyl)-N-(2-phosphonoethyl))-2-aminoethyl]guanine] yielded a Ki on PvHGPRT (Ki Pv) of at least 200 µM.

For `CCOC(=O)[C@H](Cc1ccccc1)NP(=O)(CCN(CCCC#N)CCn1cnc2c(=O)[nH]cnc21)N[C@@H](Cc1ccccc1)C(=O)OCC` [drawing 83], half-maximal inhibition in assay [1] (IC50) was put at 60 µM.

`Nc1nc2c(ncn2CCN(CCP(=O)(O)O)CP(=O)(O)O)c(=O)[nH]1` [Compound 2]: on E. coli XGPRT, the Ki is 27 µM.

In turn, `O=C(O)CN(CCn1cnc2c(=O)[nH]cnc21)CCP(=O)(O)O` [Example 21, 9-[(N-(Carboxymethyl)-N-(2-phosphonoethyl))-2-aminoethyl]hypoxanthine] came in with a Ki on PfHGXPRT of 0.6 ± 0.06 µM.

Take `COC(=O)CCN(CCn1cnc2c(=O)[nH]c(N)nc21)CCP(=O)(O)O` [Compound 8]: in the assay on P. falciparum strain D6, the IC50 turned out to be 3.5 ± 1 µM and the IC90 worked out at 8.6 ± 1.4 µM. For the same molecule, in the assay with P. falciparum strain W2, the 50% inhibitory concentration (IC50) was 2.9 ± 1.1 µM and the IC90 is 15.9 ± 4.5 µM.

On to `COC(=O)CCCN(CCn1cnc2c(=O)[nH]cnc21)CCP(=O)(O)O` [Example 17, 9-[(N-(4-Methoxy-4-oxobutyl)-N-(2-phosphonoethyl))-2-aminoethyl] hypoxanthine], for which the Ki at human HGPRT is 22 ± 3 µM; at PfHGXPRT (setting [2]) it was at least 220 µM; at PvHGPRT (setting [3]), at least 250 µM.

As usually defined, the IC50 is the concentration that gives 50% inhibition. One may read the IC90 as the point of the concentration-response curve where the effect stands at 90%.
